Earlier results on 28 compounds are cited in the PKSmart pharmacokinetics tables (Seal et al. 2025).

As usually defined, the MRT is a mean duration of stay, worked out from the concentration-time curve. One may read the Vd as the apparent volume that relates the amount in the body to the concentration in plasma or blood. As a reminder, the clearance is the volume of plasma or blood freed of the substance per unit of time. Broadly, the half-life is the time in which the quantity being followed falls by half. As usually defined, the fraction unbound is the share of the substance not bound to proteins or other matrix.

The nature of data set [1]: Lombardo, Berellini, Obach 2018, Drug Metab Dispos 46:1466, doi 10.1124/dmd.118.082966. The settings on record: human; for MRT / Vd / clearance / half-life: in vivo, iv.
The nature of data set [2]: Lombardo et al. 2013, J Clin Pharmacol 53:178, doi 10.1177/0091270012440282. To be noted: for Vd / clearance: in vivo, iv; for fraction unbound: plasma.

Consider `O=C1CN=C(c2ccccc2Cl)c2cc([N+](=O)[O-])ccc2N1`, for which, in data set [1], the MRT is 55 h, the distribution volume (Vd) is 2.9 L/kg, the clearance was 0.88 mL/min/kg and the half-life is 38 h. Besides, in data set [2] (dog), the Vd was 2.49 L/kg, the clearance is 24 mL/min/kg and the free fraction (fraction unbound) was 0.18. In data set [2] (monkey), the distribution volume (Vd) was 6.8 L/kg, the clearance is 14.3 mL/min/kg and the fraction unbound is 0.121. In data set [2] (rat), the distribution volume (Vd) was 3.1 L/kg and the clearance is 70.5 mL/min/kg.
Turning to `CN(C)CCC=C1c2ccccc2CCc2ccccc21`, in data set [1], the mean residence time (MRT) is 24 h, the volume of distribution (Vd) was 8.7 L/kg, the clearance is 6.1 mL/min/kg and the half-life was 17 h. Further, in data set [2] (rat), the Vd was 11 L/kg, the clearance was 71 mL/min/kg and the fraction unbound is 0.11.
With `CC(C)(C)NCC(O)COc1ccc(NC(=O)NC2CCCCC2)cc1` (stereo not given), in data set [1], the MRT was 11 h, the volume of distribution (Vd) was 3.3 L/kg, the clearance is 4.9 mL/min/kg and the half-life is 11 h. Besides, in data set [2] (rat), the Vd is 4.5 L/kg and the clearance is 47.5 mL/min/kg.
For the compound `COc1c(N2CCNC(C)C2)c(F)cc2c(=O)c(C(=O)O)cn(C3CC3)c12` (stereo not given), in data set [1], the MRT is 11 h, the volume of distribution (Vd) is 1.7 L/kg, the clearance was 2.8 mL/min/kg and the half-life is 10 h. In addition, in data set [2] (dog), the Vd is 2.11 L/kg, the clearance is 4.2 mL/min/kg and the free fraction (fraction unbound) is 0.84. In data set [2] (monkey), the Vd was 1.85 L/kg, the clearance is 10.2 mL/min/kg and the fraction unbound is 0.83. For the same compound, in data set [2] (rat), the Vd is 2.5 L/kg, the clearance was 19.3 mL/min/kg and the fraction unbound was 0.75.
`CON=C(C(=O)NC1C(=O)N2C(C(=O)[O-])=C(C[n+]3cccc4c3CCC4)CS[C@H]12)c1csc(N)n1` (stereo not given in full): in data set [1], the mean residence time MRT is 2.1 h, the volume of distribution (Vd) is 0.24 L/kg, the clearance was 1.9 mL/min/kg and the half-life was 1.7 h. In addition, the fraction unbound in data set [1] (plasma) is 0.9. In data set [2] (dog), the Vd was 0.22 L/kg, the clearance was 3.2 mL/min/kg and the free fraction (fraction unbound) is 0.542. In data set [2] (monkey), the Vd is 0.27 L/kg, the clearance was 2.4 mL/min/kg and the fraction unbound is 0.446. Besides, in data set [2] (rat), the Vd is 0.3 L/kg and the clearance is 9.5 mL/min/kg.
For `OC(CNCC(O)C1CCc2cc(F)ccc2O1)C1CCc2cc(F)ccc2O1` (stereo not given), in data set [2] (rat), the Vd is 6.2 L/kg, the clearance is 49 mL/min/kg and the fraction unbound was 0.015.
In the case of `O=C(O)CCCCO/N=C(/c1cccnc1)c1cccc(C(F)(F)F)c1`, in data set [2] (rat), the Vd is 0.78 L/kg, the clearance was 2 mL/min/kg and the fraction unbound is 0.05.
Take `O=C(CCCCCCC(O)=NO)Nc1ccccc1`: in data set [2] (dog), the fraction unbound was 0.458. In data set [2] (rat), the Vd was 1.6 L/kg and the clearance was 130 mL/min/kg.
Take Valproic Acd: the values for the Vd in data set [2] (dog), in data set [2] (monkey) and in data set [2] (rat) were 0.33 L/kg, 0.25 L/kg and 0.66 L/kg, respectively. In addition, the clearance in data set [2] (dog) is 3.03 mL/min/kg; in data set [2] (monkey), 4.2 mL/min/kg; in data set [2] (rat) it was 4.2 mL/min/kg. The values for the fraction unbound in data set [2] (dog), in data set [2] (monkey) and in data set [2] (rat) were 0.215, 0.22 and 0.366, respectively.
Take `[H]/N=C(\N)N1CCC[C@@H](CNC(=O)CC(NS(=O)(=O)c2ccc3ccccc3c2)C(=O)N(CC(=O)O)C2CC2)C1` (stereo not given in full): the Vd in data set [2] (dog) was 0.64 L/kg; in data set [2] (monkey), 0.32 L/kg; in data set [2] (rat), 0.6 L/kg. For the same compound, the fraction unbound in data set [2] (dog) is 0.52; in data set [2] (rat), 0.33.
As to `CN[C@@H]1C[C@H]2O[C@@](C)([C@@H]1OC)n1c3ccccc3c3c4c(c5c6ccccc6n2c5c31)C(=O)N[C@@H]4O`, in data set [2] (dog), the Vd was 6.09 L/kg, the clearance was 10.2 mL/min/kg and the unbound share (fraction unbound) was 0.0074. Also, in data set [2] (rat), the volume of distribution (Vd) is 16.7 L/kg and the clearance is 65 mL/min/kg.
Consider `CC(NC(=O)N(CCCl)N=O)C(N)=O` (stereo not given), for which, in data set [2] (dog), the clearance is 17.6 mL/min/kg.
`COc1ccc(-c2nc3ccc(C4=NNC(=O)CC4C)cc3[nH]2)cc1` (stereo not given): the Vd in data set [2] (rat) was 3.5 L/kg.
For `CONC(C(=O)N=C1C(=O)N2C(C(=O)[O-])=C(C[N+]34CCC(C(N)=O)(CC3)CC4)CS[C@H]12)c1nsc(N)n1` (stereo not given in full), in data set [2] (dog), the Vd was 0.23 L/kg and the clearance was 3.3 mL/min/kg.
Turning to `Cc1nnc(C(C)C)n1C1C[C@H]2CC[C@@H](C1)N2CC[C@H](NC(=O)C1CCC(F)(F)CC1)c1ccccc1` (stereo not given in full), in data set [2] (dog), the Vd is 2.32 L/kg, the clearance was 21 mL/min/kg and the fraction unbound was 0.36. Further, in data set [2] (rat), the distribution volume (Vd) was 2.53 L/kg, the clearance is 74 mL/min/kg and the fraction unbound was 0.49.
`NC(=O)C(c1ccccc1)(c1ccccc1)[C@@H]1CCN(CCc2ccc3c(c2)CCO3)C1`: in data set [2] (dog), the volume of distribution (Vd) was 6.8 L/kg and the clearance was 39 mL/min/kg. Besides, in data set [2] (rat), the distribution volume (Vd) was 7 L/kg and the clearance was 59 mL/min/kg.
Take `C[C@@H](O)C1C(=O)N2C(C(=O)O)=C(SCC/N=C/N)C[C@H]12` (stereo not given in full): the figures for the clearance in data set [2] (dog), in data set [2] (monkey) and in data set [2] (rat) were 4.3 mL/min/kg, 5.7 mL/min/kg and 14.5 mL/min/kg, respectively. In addition, the unbound share (fraction unbound) was 1 in data set [2] (dog), 0.975 in data set [2] (monkey) and 1 in data set [2] (rat).
Take `OC(CCN1CCCCC1)(c1ccccc1)C1CC2C=CC1C2` (stereo not given): in data set [2] (dog), the Vd is 9.7 L/kg, the clearance is 27 mL/min/kg and the fraction unbound was 0.19. In data set [2] (rat), the fraction unbound was 0.31.
`COc1ccc2nc([S+](O)Cc3ncc(C)c(OC)c3C)[n-]c2c1` (stereo not given): in data set [2] (rat), the distribution volume (Vd) was 0.44 L/kg, the clearance was 53 mL/min/kg and the free fraction (fraction unbound) was 0.19.
Turning to `O=c1nc[nH]c2c1ncn2[C@H]1CC[C@@H](CO)O1`, the Vd in data set [2] (dog) is 0.96 L/kg; in data set [2] (monkey), 1.3 L/kg; in data set [2] (rat), 1.3 L/kg. For the same compound, the figures for the clearance in data set [2] (dog), in data set [2] (monkey) and in data set [2] (rat) were 25.3 mL/min/kg, 27.2 mL/min/kg and 150 mL/min/kg, respectively.
`C[C@@H](O)C1C(=O)N2C(C(=O)O)=C(S[C@@H]3CN[C@H](CNS(N)(=O)=O)C3)[C@H](C)[C@H]12` (stereo not given in full): the clearance in data set [2] (dog) is 4.7 mL/min/kg; in data set [2] (monkey), 7.7 mL/min/kg; in data set [2] (rat), 35.7 mL/min/kg. The figures for the unbound share (fraction unbound) in data set [2] (dog), in data set [2] (monkey) and in data set [2] (rat) were 0.9, 0.94 and 0.65, respectively.
On to `Cn1nnc2c(C(N)=O)ncn2c1=O`, for which, in data set [2] (rat), the Vd was 0.92 L/kg and the clearance was 9.8 mL/min/kg.
Consider `CCN[C@@H]1C[C@H](N)[C@@H](OC2OC(CN)=CCC2N)[C@H](O)[C@H]1O[C@H]1OC[C@](C)(O)[C@H](NC)[C@H]1O` (stereo not given in full), for which, in data set [2] (dog), the volume of distribution (Vd) is 0.34 L/kg and the clearance was 3.4 mL/min/kg.
As to `Cc1cccc([C@H](C)c2cnc[nH]2)c1C`, in data set [2] (rat), the Vd is 3.24 L/kg and the clearance was 59.4 mL/min/kg.
Consider `CCC[C@@H]1CC(C(=O)N[C@@H]([C@H]2O[C@H](SC)[C@H](O)[C@@H](O)[C@H]2O)[C@H](C)Cl)N(C)C1` (stereo not given in full), for which the unbound share (fraction unbound) was 0.035 in data set [2] (dog) and 0.325 in data set [2] (rat).
`CC(C)(N)CC(=O)NC1CCc2ccccc2N(Cc2ccc(-c3ccccc3-c3nn[nH]n3)cc2)C1=O` (stereo not given): in data set [2] (dog), the Vd is 0.34 L/kg, the clearance was 19.3 mL/min/kg and the unbound share (fraction unbound) is 0.86. For the same compound, in data set [2] (monkey), the volume of distribution (Vd) was 0.16 L/kg, the clearance was 5.7 mL/min/kg and the fraction unbound is 0.06. Besides, in data set [2] (rat), the Vd is 0.15 L/kg, the clearance was 2.7 mL/min/kg and the unbound share (fraction unbound) was 0.02.
Regarding `[H]/N=C(\N)c1ccc(C(=O)NC(Cc2ccc(O)cc2)C(=O)N2CCC(OCC(=O)O)CC2)cc1` (stereo not given), the results for the Vd in data set [2] (dog), in data set [2] (monkey) and in data set [2] (rat) were 0.75 L/kg, 0.29 L/kg and 0.24 L/kg, respectively.
Turning to `CC(C)=CCN1CC[C@@]2(C)c3cc(O)ccc3C[C@@H]1[C@@H]2C`, in data set [2] (monkey), the volume of distribution (Vd) was 9.62 L/kg and the clearance is 56.6 mL/min/kg.
